# Tests used:
# Assay in all cases: Test B pre-/postemergence plant response
# Type in all cases: in vivo
# kochia (Kochia scoparia) = tested on: kochia (Kochia scoparia)
# How it was run: (§1)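 Ratings reflect visual comparison with untreated controls 13 to 15 days after application, from 0 (no effect) to 100 (complete control). Application was preemergence to seeded loam/sand soil or postemergence to 1- to 4-leaf plants, with compound in a non-phytotoxic, surfactant-containing solvent.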
# [1] = tested on: Italian ryegrass (Lolium multiflorum)
# How it was run: as §1
# [2] = tested on: large crabgrass (Digitaria sanguinalis)
# How it was run: as §1
# [3] = tested on: blackgrass (Alopecurus myosuroides)
# How it was run: as §1
# [4] = tested on: green foxtail (Setaria viridis)
# How it was run: as §1
# [5] = tested on: bermudagrass (Cynodon dactylon)
# How it was run: as §1
# [6] = tested on: cocklebur (Xanthium strumarium)
# How it was run: as §1
# [7] = tested on: yellow nutsedge (Cyperus esculentus)
# How it was run: as §1
# [8] = tested on: downy bromegrass (Bromus tectorum)
# How it was run: as §1
# [9] = tested on: Surinam grass (Brachiaria decumbens)
# How it was run: as §1
# corn (Zea mays) = tested on: corn (Zea mays)
# How it was run: as §1
# [10] = tested on: pigweed (Amaranthus retroflexus)
# How it was run: as §1
# [11] = tested on: lambsquarters (Chenopodium album)
# How it was run: as §1
# wild oat (Avena fatua) = tested on: wild oat (Avena fatua)
# How it was run: as §1
# [12] = tested on: velvetleaf (Abutilon theophrasti)
# How it was run: as §1
# soybean (Glycine max) = tested on: soybean (Glycine max)
# How it was run: as §1
# [13] = tested on: ragweed (common ragweed, Ambrosia elatior); details: Preemergence
# How it was run: as §1
# [14] = Postemergence, 31 g ai/ha, 0 to 100 scale (0 no effect, 100 complete control)
# [15] = Postemergence, 125 g ai/ha, scale 0 to 100 (0 no effect, 100 complete control)
# [16] = Postemergence, 250 g ai/ha, scale 0 to 100 (0 no effect, 100 complete control), 13 to 15 days
# [17] = Postemergence, 62 g ai/ha, scale 0 to 100 (0 no effect, 100 complete control)
# [18] = Preemergence, 31 g ai/ha, scale 0 to 100 (0 no effect, 100 complete control)
# [19] = Preemergence, 62 g ai/ha, scale 0 to 100, 0 no effect, 100 complete control
# [20] = Preemergence, 125 g ai/ha, scale 0 to 100, 0 no effect, 100 complete control
# [21] = Preemergence, 250 g ai/ha, 0 to 100 scale
structure (smiles),measurement,setting,value
CCCCn1c(C2CC2)ncc(C(=O)C2=C(O)CCCC2=O)c1=O [Compound 193],"Plant response rating, Kochia",kochia (Kochia scoparia); [14],20
same,"Plant response rating, Kochia",kochia (Kochia scoparia); [15],100
same,"Plant response rating, Kochia",kochia (Kochia scoparia); [16],100
same,"Plant response rating, Kochia",kochia (Kochia scoparia); [17],80
same,"Plant response rating, Kochia",kochia (Kochia scoparia); [18],20
same,"Plant response rating, Kochia",kochia (Kochia scoparia); [19],70
same,"Plant response rating, Kochia",kochia (Kochia scoparia); [20],80
same,Kochia plant response rating,kochia (Kochia scoparia); [21],90
same,"Plant response rating, Ryegrass, Italian",[1]; [14],5
same,"Plant response rating, Ryegrass, Italian",[1]; [16],45
same,"Plant response rating, Ryegrass, Italian",[1]; [17],40
same,"Plant response rating, Ryegrass, Italian",[1]; [18],0
same,"Plant response rating, Ryegrass, Italian",[1]; [19],0
same,"Plant response rating, Ryegrass, Italian",[1]; [20],25
same,"Ryegrass, Italian plant response rating",[1]; [21],45
same,"Plant response rating, Crabgrass, Large",[2]; [14],75
same,"Plant response rating, Crabgrass, Large",[2]; [15],98
same,"Plant response rating, Crabgrass, Large",[2]; [16],100
same,"Plant response rating, Crabgrass, Large",[2]; [17],90
same,"Plant response rating, Crabgrass, Large",[2]; [18],100
same,"Plant response rating, Crabgrass, Large",[2]; [19],100
same,"Plant response rating, Crabgrass, Large",[2]; [20],100
same,"Crabgrass, Large plant response rating",[2]; [21],100
same,"Plant response rating, Blackgrass",[3]; [14],10
same,"Plant response rating, Blackgrass",[3]; [15],40
same,"Plant response rating, Blackgrass",[3]; [16],60
same,"Plant response rating, Blackgrass",[3]; [17],15
same,"Plant response rating, Blackgrass",[3]; [18],0
same,"Plant response rating, Blackgrass",[3]; [19],0
same,"Plant response rating, Blackgrass",[3]; [20],30
same,Blackgrass plant response rating,[3]; [21],70
same,"Plant response rating, Foxtail, Green",[4]; [14],40
same,"Plant response rating, Foxtail, Green",[4]; [15],60
same,"Plant response rating, Foxtail, Green",[4]; [16],80
same,"Plant response rating, Foxtail, Green",[4]; [17],50
same,"Plant response rating, Foxtail, Green",[4]; [18],5
same,"Plant response rating, Foxtail, Green",[4]; [19],50
same,"Plant response rating, Foxtail, Green",[4]; [20],50
same,"Foxtail, Green plant response rating",[4]; [21],98
same,"Plant response rating, Bermudagrass",[5]; [14],95
same,"Plant response rating, Bermudagrass",[5]; [15],100
same,"Plant response rating, Bermudagrass",[5]; [16],100
same,"Plant response rating, Bermudagrass",[5]; [17],100
same,"Plant response rating, Bermudagrass",[5]; [18],75
same,"Plant response rating, Bermudagrass",[5]; [19],95
same,"Plant response rating, Bermudagrass",[5]; [20],95
same,Bermudagrass plant response rating,"[5]; Preemergence, 250 g ai/ha, 0 to 100 scale, 0 no effect, 100 complete control",98
same,"Plant response rating, Cocklebur",[6]; [14],95
same,"Plant response rating, Cocklebur",[6]; [15],100
same,"Plant response rating, Cocklebur",[6]; [16],100
same,"Plant response rating, Cocklebur",[6]; [17],95
same,"Plant response rating, Cocklebur",[6]; [19],75
same,Cocklebur plant response rating,[6]; [21],95
same,"Plant response rating, Nutsedge, Yellow",[7]; [14],60
same,"Plant response rating, Nutsedge, Yellow",[7]; [15],75
same,"Plant response rating, Nutsedge, Yellow",[7]; [16],75
same,"Plant response rating, Nutsedge, Yellow",[7]; [17],65
same,"Plant response rating, Nutsedge, Yellow",[7]; [18],10
same,"Plant response rating, Nutsedge, Yellow",[7]; [19],65
same,"Plant response rating, Nutsedge, Yellow",[7]; [20],70
same,"Nutsedge, Yellow plant response rating",[7]; [21],90
same,"Plant response rating, Bromegrass, Downy",[8]; [14],10
same,"Plant response rating, Bromegrass, Downy",[8]; [15],40
same,"Plant response rating, Bromegrass, Downy",[8]; [16],85
same,"Plant response rating, Bromegrass, Downy",[8]; [17],30
same,"Plant response rating, Bromegrass, Downy",[8]; [18],0
same,"Plant response rating, Bromegrass, Downy",[8]; [19],5
same,"Plant response rating, Bromegrass, Downy",[8]; [20],5
same,"Bromegrass, Downy plant response rating",[8]; [21],50
same,"Plant response rating, Surinam Grass",[9]; [14],65
same,"Plant response rating, Surinam Grass",[9]; [16],95
same,"Plant response rating, Surinam Grass",[9]; [17],65
same,"Plant response rating, Surinam Grass",[9]; [18],0
same,"Plant response rating, Surinam Grass",[9]; [19],15
same,"Plant response rating, Surinam Grass",[9]; [20],30
same,Surinam Grass plant response rating,[9]; [21],45
same,"Plant response rating, Corn",corn (Zea mays); [14],0
same,"Plant response rating, Corn",corn (Zea mays); [15],40
same,"Plant response rating, Corn",corn (Zea mays); [16],60
same,"Plant response rating, Corn",corn (Zea mays); [17],15
same,"Plant response rating, Corn",corn (Zea mays); [18],0
same,"Plant response rating, Corn",corn (Zea mays); [19],0
same,"Plant response rating, Corn",corn (Zea mays); [20],5
same,Corn plant response rating,corn (Zea mays); [21],5
same,"Plant response rating, Pigweed",[10]; [14],90
same,"Plant response rating, Pigweed",[10]; [16],100
same,"Plant response rating, Pigweed",[10]; [17],95
same,"Plant response rating, Pigweed",[10]; [18],98
same,"Plant response rating, Pigweed",[10]; [19],100
same,"Plant response rating, Pigweed",[10]; [20],100
same,Pigweed plant response rating,[10]; [21],100
same,"Plant response rating, Lambsquarters",[11]; [14],98
same,"Plant response rating, Lambsquarters",[11]; [15],98
same,"Plant response rating, Lambsquarters",[11]; [16],100
same,"Plant response rating, Lambsquarters",[11]; [17],98
same,"Plant response rating, Lambsquarters",[11]; [18],100
same,"Plant response rating, Lambsquarters",[11]; [19],100
same,"Plant response rating, Lambsquarters",[11]; [20],100
same,Lambsquarters plant response rating,[11]; [21],100
same,"Plant response rating, Oat, Wild",wild oat (Avena fatua); [14],0
same,"Plant response rating, Oat, Wild",wild oat (Avena fatua); [16],75
same,"Plant response rating, Oat, Wild",wild oat (Avena fatua); [17],50
same,"Plant response rating, Oat, Wild",wild oat (Avena fatua); [18],5
same,"Plant response rating, Oat, Wild",wild oat (Avena fatua); [19],5
same,"Plant response rating, Oat, Wild",wild oat (Avena fatua); [20],30
same,"Oat, Wild plant response rating",wild oat (Avena fatua); [21],60
same,"Plant response rating, Velvetleaf",[12]; [14],90
same,"Plant response rating, Velvetleaf",[12]; [16],100
same,"Plant response rating, Velvetleaf",[12]; [17],100
same,"Plant response rating, Velvetleaf",[12]; [18],85
same,"Plant response rating, Velvetleaf",[12]; [19],100
same,"Plant response rating, Velvetleaf",[12]; [20],100
same,Velvetleaf plant response rating,[12]; [21],100
same,"Plant response rating, Soybean",soybean (Glycine max); [14],80
same,"Plant response rating, Soybean",soybean (Glycine max); [16],100
same,"Plant response rating, Soybean",soybean (Glycine max); [17],98
same,"Plant response rating, Soybean",soybean (Glycine max); [18],40
same,"Plant response rating, Soybean",soybean (Glycine max); [19],60
same,"Plant response rating, Soybean",soybean (Glycine max); [20],60
same,Soybean plant response rating,soybean (Glycine max); [21],80
same,"Plant response rating, Ragweed","[13]; 31 g ai/ha, scale 0 to 100 (0 no effect, 100 complete control)",100
same,"Plant response rating, Ragweed","[13]; 62 g ai/ha, scale 0 to 100, 0 no effect, 100 complete control",100
same,"Plant response rating, Ragweed","[13]; 125 g ai/ha, scale 0 to 100, 0 no effect, 100 complete control",100
same,Ragweed plant response rating,"[13]; 250 g ai/ha, 0 to 100 scale",100

# Reference: patent US8952024B2, “Herbicidal pyrimidone derivatives” (E I du Pont de Nemours and Company, priority 2009, dated 2015)
